Experimental data from patent US20120129842A1, “BISTHIAZOLE INHIBITORS OF PRO-MATRIX METALLOPROTEINASE ACTIVATION” (priority 2010, published 2012).
Structures can show the parent of a compound that is named as a salt.

What was measured:
[1] = target: proMMP13(1-268) (SEQ ID NO:7) (Homo sapiens, UniProt P45452); experiment: ThermoFluor binding assay with proMMP13(1-268); parameters: 6xHis (C); made in house; conditions: pH 7.0
Protocol: (§1) The ThermoFluor® (TF) assay is a 384-well plate-based binding assay that measures thermal stability of proteins (Biomol Screen 2001, 6, 429-40; Biochemistry 2005, 44, 5258-66). The experiments were carried out using instruments available from Johnson & Johnson Pharmaceutical Research & Development, LLC. TF dye used in all experiments was […] (1,8-ANS) (Invitrogen: A-47).
(§2) Compounds were arranged in a pre-dispensed plate (Greiner Bio-one: 781280), wherein compounds were serially diluted in 100% DMSO across 11 columns within a series. Columns 12 and 24 were used as DMSO reference and contained no compound. For multiple compound concentration-response experiments, the compound aliquots ([…]) were robotically predispensed directly into black 384-well polypropylene PCR microplates (Abgene: TF-0384/k) using a Cartesian Hummingbird liquid handler (DigiLab, Holliston, Mass.). Following compound dispense, protein and dye solutions were added to achieve the final assay volume of 3 μL. The assay solutions were overlayed with 1 μL of silicone oil (Fluka, type DC 200: 85411) to prevent evaporation.
(§3) Assay plates were robotically loaded onto a thermostatically controlled PCR-type thermal block and then heated from 40 to 90° C. at a ramp-rate of 1° C./min for all experiments. Fluorescence was measured by continuous illumination with UV light (Hamamatsu LC6) supplied via fiber optics and filtered through a band-pass filter (380-400 nm; >6 OD cutoff). Fluorescence emission of the entire 384-well plate was detected by measuring light intensity using a CCD camera (Sensys, Roper Scientific) filtered to detect 500±25 nm, resulting in simultaneous and independent readings of all 384 wells. A single image with 20-sec exposure time was collected at each temperature, and the sum of the pixel intensity in a given area of the assay plate was recorded vs temperature and fit to standard equations to yield the Tm (J Biomol Screen 2001, 6, 429-40).
(§4) Thermodynamic parameters necessary for fitting compound binding for each proMMP were estimated by differential scanning calorimetry (DSC) and from ThermoFluor® data. The heat capacity of unfolding for each protein was estimated from the molecular weight and from ThermoFluor® dosing data.
The proMMP13(1-268) (SEQ ID NO:7) protein sample preparations included a desalting buffer exchange step via a PD-10 gravity column (GE Healthcare). The desalting buffer exchange was performed prior to diluting the protein to the final assay concentration of 3.5 μM. The concentration of proMMP13(1-268) (SEQ ID NO:7) was estimated spectrophotometrically based on a calculated extinction coefficient of ε280=37000 M^−1cm^−1, a calculated molecular weight of 30.8 kDa, and calculated pI of 5.33. ThermoFluor® reference conditions were defined as follows: 100 μg/mL proMMP13(1-268) (SEQ ID NO:7), 25 μM 1,8-ANS, pH 7.0 Buffer (50 mM HEPES pH 7.0, 100 mM NaCl, 0.001% Tween-20, 2.5 mM MgCl2, 300 μM CaCl2). The thermodynamic parameters for proMMP13(1-268) (SEQ ID NO:7) are as follows: Tm (° C.)=67 (+/−0.1), ΔUH(Tm) (cal mol^−1)=107000(+/−5000), ΔUS(Tm) (cal mol^−1 K^−1)=318, ΔUCp (cal mol^−1 K^−1)=2600.

[2] = target: T1, proMMP9(20-445;ΔFnII) (SEQ ID NO:6) (Homo sapiens, UniProt P14780, DEL216-390); experiment: ThermoFluor binding assay with proMMP9(20-445;ΔFnII); conditions: pH 7.0
T1 construct: start methionine (N); made in house; host or cells: E. coli BL21(DE3) RIL
T1 sequence (P14780 with tags, fused parts or gaps DEL216-390): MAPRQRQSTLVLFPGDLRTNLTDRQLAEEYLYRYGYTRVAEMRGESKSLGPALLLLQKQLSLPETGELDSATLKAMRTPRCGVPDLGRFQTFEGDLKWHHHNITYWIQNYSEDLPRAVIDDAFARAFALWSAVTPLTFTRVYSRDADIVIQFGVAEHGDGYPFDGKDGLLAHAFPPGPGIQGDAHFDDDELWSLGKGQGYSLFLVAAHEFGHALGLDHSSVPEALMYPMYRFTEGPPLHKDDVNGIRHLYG
Protocol: as §1, §2, §3, §4
The protein sample preparations included a desalting buffer exchange step via a PD-10 gravity column (GE Healthcare). The desalting buffer exchange was performed prior to diluting the protein to the final assay concentration of 2.8 μM proMMP9(20-445;ΔFnII) (SEQ ID NO:6). The concentration of proMMP9(20-445;ΔFnII) (SEQ ID NO:6) was determined spectrophotometrically based on a calculated extinction coefficient of ε280=39880 M^−cm^−1, a calculated molecular weight of 28.2 kDa, and calculated pI of 5.5. ThermoFluor® reference conditions were define as follows: 80 μg/mL (2.8 μM) proMMP9(20-445;ΔFnII) (SEQ ID NO:6), 50 μM 1,8-ANS, pH 7.0 Buffer (50 mM HEPES pH 7.0, 100 mM NaCl, 0.001% Tween-20, 2.5 mM MgCl2, 300 μM CaCl2). The thermodynamic parameters for proMMP9(20-445;ΔFnII) (SEQ ID NO:6) are as follows: Tm (° C.)=72 (+/−0.1), ΔUH(Tm) (cal mol^−1)=160000(+/−5000), ΔUS(Tm) (cal mol^−1 K^−1)=434, ΔUCp (cal mol^−1 K^−)=2400.

[3] = target: T2, proMMP9(67-444;ΔFnII) (SEQ ID NO:5) (Homo sapiens, UniProt P14780, DEL216-390); experiment: ThermoFluor binding assay with proMMP9(67-444;ΔFnII); conditions: pH 7.0
T2 construct: start methionine (N); made in house; host or cells: E. coli BL21(DE3) RIL
T2 sequence (P14780 with tags, fused parts or gaps DEL216-390): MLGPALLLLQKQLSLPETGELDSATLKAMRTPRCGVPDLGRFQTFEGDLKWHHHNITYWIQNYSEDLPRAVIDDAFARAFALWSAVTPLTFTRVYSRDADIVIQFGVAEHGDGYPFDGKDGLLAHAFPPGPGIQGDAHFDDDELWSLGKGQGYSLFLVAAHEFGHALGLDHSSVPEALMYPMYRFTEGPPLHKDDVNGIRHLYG
Protocol: as §1, §2, §3, §4
The protein sample preparations had to include a desalting buffer exchange step via a PD-10 gravity column (GE Healthcare). The desalting buffer exchange was performed prior to diluting the protein to the final assay concentration of 3.5 μM proMMP9(67-444;ΔFnII) (SEQ ID NO:5). The concentration of proMMP9(67-444;ΔFnII) (SEQ ID NO:5) was determined spectrophotometrically based on a calculated extinction coefficient of ε280=33900 M^−1cm^−1, a calculated molecular weight of 22.6 kDa, and calculated pI of 5.20. ThermoFluor® reference conditions were defined as follows: 80 μg/mL (3.5 μM) proMMP9(67-444;ΔFnII) (SEQ ID NO:5), 50 μM 1,8-ANS, pH 7.0 Buffer (50 mM HEPES pH 7.0, 100 mM NaCl, 0.001% Tween-20, 2.5 mM MgCl2, 300 μM CaCl2). The thermodynamic parameters for proMMP9(67-444;ΔFnII) (SEQ ID NO:5) are as follows: Tm (° C.)=63 (+/−0.1), ΔUH(Tm) (cal mol^−1)=105000(+/−5000), ΔUS(Tm) (cal mol^−1 K^−1)=[…], ΔUCp (cal mol^−1 K^−1)=2000.

[4] = target: T3, full-length proMMP9(1-707) (SEQ ID NO:1) (Homo sapiens, UniProt P14780, R574P); experiment: proMMP9/MMP3 P126 Activation Assay; assay type: biochemical; conditions: 20 nM proMMP9, 20 nM MMP3, 80 min 37° C.
T3 construct: made in house; host or cells: HEK293 (proMMP9, secreted); E. coli (MMP3)
T3 sequence (P14780 20-707 R574P): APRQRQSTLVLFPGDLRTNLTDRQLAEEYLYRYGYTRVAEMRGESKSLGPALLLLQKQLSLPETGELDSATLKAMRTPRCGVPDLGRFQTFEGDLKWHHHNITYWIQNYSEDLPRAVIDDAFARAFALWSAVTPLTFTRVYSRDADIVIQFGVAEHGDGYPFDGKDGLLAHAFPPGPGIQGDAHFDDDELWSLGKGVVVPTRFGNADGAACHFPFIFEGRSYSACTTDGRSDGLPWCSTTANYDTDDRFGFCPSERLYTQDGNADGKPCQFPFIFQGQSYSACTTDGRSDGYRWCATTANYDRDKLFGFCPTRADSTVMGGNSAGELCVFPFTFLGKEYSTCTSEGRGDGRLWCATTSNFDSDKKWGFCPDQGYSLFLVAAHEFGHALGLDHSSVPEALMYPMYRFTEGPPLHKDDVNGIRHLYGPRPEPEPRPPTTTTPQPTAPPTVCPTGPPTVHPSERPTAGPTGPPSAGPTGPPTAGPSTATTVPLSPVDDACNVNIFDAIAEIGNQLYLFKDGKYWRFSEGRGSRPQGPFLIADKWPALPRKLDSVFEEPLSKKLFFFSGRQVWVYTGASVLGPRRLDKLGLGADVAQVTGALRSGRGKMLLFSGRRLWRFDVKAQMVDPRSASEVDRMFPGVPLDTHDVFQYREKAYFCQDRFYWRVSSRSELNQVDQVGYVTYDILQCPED
Protocol: The reaction volume was 50 μL. […] Reactivity of residual MMP3 towards P-126 substrate was minimal under these conditions.

Row | Kd [1] | Kd [2] | Kd [3] | IC50 [4] | Compound
1 | – | 350 nM | 450 nM | 410 nM | Cc1nc(N)sc1-c1csc(Nc2cc(C(=O)O)ccc2OC(C)C)n1 [Example 77, 3-(2′-Amino-4′-methyl-[4,5′]bithiazolyl-2-ylamino)-4-isopropoxy-benzoic acid.TFA]
2 | – | 45 nM | 220 nM | 340 nM | Cc1nc(Nc2ccncc2)sc1-c1csc(Nc2cc(C(N)=O)ccc2OC(C)C)n1 [Example 92, 4-Isopropoxy-3-[4′-methyl-2′-(pyridin-4-ylamino)-[4,5′]bithiazolyl-2-ylamino]-benzamide.TFA]
3 | – | 18000 nM | > 95000 nM | > 20000 nM | COc1ccc(-c2ccc(C(C)=O)s2)cc1Nc1nc(-c2sc(C)nc2C)cs1 [Example 134, 1-{5-[3-(2′,4′-Dimethyl-[4,5′]bithiazolyl-2-ylamino)-4-methoxy-phenyl]-thiophen-2-yl}-ethanone]
4 | – | 31000 nM | 40000 nM | ~5000 nM | COc1ccc(-c2c(C)noc2C)cc1Nc1nc(-c2sc(C)nc2C)cs1 [Example 135, (2′,4′-Dimethyl-[4,5′]bithiazolyl-2-yl)-[5-(3,5-dimethyl-isoxazol-4-yl)-2-methoxy-phenyl]-amine]
5 | – | 38000 nM | 8200 nM | ~6000 nM | COc1ccc(-c2cnn(C)c2)cc1Nc1nc(-c2sc(C)nc2C)cs1 [Example 136, (2′,4′-Dimethyl-[4,5′]bithiazolyl-2-yl)-[2-methoxy-5-(1-methyl-1H-pyrazol-4-yl)-phenyl]-amine]
6 | – | 5700 nM | 6400 nM | 4700 nM | Cc1nc(C)c(-c2nc(Nc3cc(S(N)(=O)=O)ccc3OC(C)C)sc2C)s1 [Example 152, 4-Isopropoxy-3-((2′,4′,5-trimethyl-[4,5′-bithiazol]-2-yl)amino)benzenesulfonamide]
7 | – | 1600 nM | 4500 nM | 1400 nM | Cc1nc(C)c(-c2nc(Nc3cc(C(N)=O)ccc3OC(C)C)sc2C)s1 [Example 153, 4-Isopropoxy-3-((2′,4′,5-trimethyl-[4,5′-bithiazol]-2-yl)amino)benzamide]
8 | – | 2200 nM | 2000 nM | 2600 nM | CCSc1ccc(S(N)(=O)=O)cc1Nc1nc(-c2sc(C)nc2C)cs1 [Example 154, 3-((2′,4′-Dimethyl-[4,5′-bithiazol]-2-yl)amino)-4-(ethylthio)benzenesulfonamide]

Second part, the compound before the results:

Row | Compound | Kd [1] | Kd [2] | Kd [3] | IC50 [4]
9 | CC(=O)Nc1nc(C)c(-c2csc(Nc3cccc4c3OCCO4)n2)s1 [Example 19, N-[2-(2,3-Dihydro-benzo[1,4]dioxin-5-ylamino)-4′-methyl-[4,5′]bithiazolyl-2′-yl]-acetamide] | 62000 nM | 17000 nM | 11000 nM | –
10 | COc1ccc(NC(C)=O)cc1Nc1nc(-c2sc(N)nc2C)cs1 [Example 84, N-[3-(2′-Amino-4′-methyl-[4,5′]bithiazolyl-2-ylamino)-4-methoxy-phenyl]-acetamide.TFA] | – | 19000 nM | 9700 nM | 9800 nM
11 | Cc1nc(N2CCCC2)sc1-c1csc(Nc2cc(C(N)=O)ccc2OC(C)C)n1 [Example 91, 4-Isopropoxy-3-(4′-methyl-2′-pyrrolidin-1-yl-[4,5′]bithiazolyl-2-ylamino)-benzamide.TFA] | – | 140 nM | 520 nM | 300 nM
12 | Cc1nc(-c2ncc(C(F)(F)F)cc2N2CCCC2)sc1-c1csc(Nc2cc(C(N)=O)ccc2OC(C)C)n1 [Example 97, 4-Isopropoxy-3-[4′-methyl-2′-(3-pyrrolidin-1-yl-5-trifluoromethyl-pyridin-2-yl)-[4,5′]bithiazolyl-2-ylamino]-benzamide.TFA] | – | 1900 nM | > 95000 nM | > 20000 nM
13 | COc1ccc(-c2cc[nH]n2)cc1Nc1nc(-c2sc(C)nc2C)cs1 [Example 137, (2′,4′-Dimethyl-[4,5′]bithiazolyl-2-yl)-[2-methoxy-5-(1H-pyrazol-3-yl)-phenyl]-amine] | – | 11000 nM | 2200 nM | 4700 nM
14 | Cc1nc(-c2cnccn2)sc1-c1csc(Nc2cc(C(N)=O)ccc2OC(C)C)n1 [Example 145] | – | 130 nM | 650 nM | 780 nM
15 | COc1ccncc1Nc1nc(-c2sc(C)nc2C)cs1 [Example 151, N-(4-Methoxypyridin-3-yl)-2′,4′-dimethyl-[4,5′-bithiazol]-2-amine] | – | 3700 nM | 570 nM | 410 nM
16 | COc1ccncc1Nc1nc(-c2sc(N3CCN(C)CC3)nc2C)cs1 [Example 155, N-(4-Methoxypyridin-3-yl)-4′-methyl-2′-(4-methylpiperazin-1-yl)-[4,5′-bithiazol]-2-amine.TFA] | – | 1900 nM | 340 nM | 290 nM
